# “Also recorded” adds a separate entry of the source. Marks after values point to notes of the source that are not given here.
# Legend:
# [1] = system: S. mansoni somules; test: S. mansoni somules phenotypic screen in vitro; type: cell-based, Schistosoma mansoni; conditions: for SOMULES SEVERITY SCORE: Table 2S, 10 uM
# Text: (§1) The NMRI isolate of S. mansoni was maintained by passage through Biomphalaria glabrata snails and 3–5 week-old, female Golden Syrian hamsters (Charles River, San Diego, CA) as intermediate and definite hosts, respectively. A dose of 600 infective larvae (cercariae) was used to infect hamsters. The acquisition, preparation and in vitro maintenance of S. mansoni post-infective larvae (schistosomula or somules) and adults have been already described[5],[50],[51]. Vertebrate animal maintenance and handling at the University of California San Diego Animal Care Facility were in accordance with protocols approved by the university’s Institutional Animal Care and Use Committee (IACUC).
# Phenotypic screens with somules were performed as described[5],[50],[51]. Initially, 100 μL Basch medium, 100 U/ml penicillin, […] streptomycin, 4% heat-inactivated FBS (Corning Mediatech) and 1 μl compound in DMSO were added to clear, 96-well round-bottomed plates (Costar cat.# 3367). Then, 100 μL of the same medium containing 40–50 somules was added to mix the compound with somules (final concentration of DMSO was 0.5%). Assay plates were placed into plastic boxes humidified with wet tissue and then incubated at 37 °C in a 5% CO2 environment. Somules phenotypes were recorded every 24 h up to 72 h using an inverted microscope (Zeiss Axiovert 40 C).
# (§2) Schistosome phenotypic responses were recorded employing a series of ‘descriptors,’ such as rounding, degeneration, overactivity, loss of translucency and changes in motility, as described previously[5],[50],[51],[53]. To allow for comparisons of compound activity, each descriptor was awarded a value of 1 and these were added up to a maximum ‘severity score’ of 4. Evidence of degeneracy or death was awarded the maximum score of 4. Scores were averaged across duplicate wells for each compound (see details in the supporting information).
# [2] = system: S. mansoni adults; test: S. mansoni adults phenotypic screen ex vivo; type: cell-based, Schistosoma mansoni; conditions: for ADULTS SEVERITY SCORE: Table 2S, 5 uM
# Text: as §1
# Phenotypic screens with 42-day-old, adult parasites were performed in 24-well plates (Costar cat.# 3526) containing the above medium and approximately five adult males and two females per well. Compound was added in a volume of up to 1 μL DMSO at a concentration of 5 µM (0.05% DMSO final). Assay plates were incubated at 37 °C in a 5% CO2 environment. Parasite phenotypes were recorded at 4, 8 and 24 h using a Zeiss Axiovert 40 C.
# as §2
# [3] = system: adult form of F. hepatica; test: Ex-vivo assay in the adult form of F. hepatica; type: cell-based, Fasciola hepatica
# Procedure: F. hepatica were collected from natural infections of cattle obtained from Casablanca slaughterhouse in Paysandú, Uruguay[49]. […] After flukes emptied their gut content (i.e. the gut was not dark anymore) they were transferred to 6 well plates (one fluke per well) with 2 mL of RPMI 1640 media with 200 U/mL Penicillin G sulfate, […] streptomycin sulfate, 500 ng/mL amphotericin B and 10 mM glucose at 37 °C. […] The antiparasitic efficacy was expressed as the percentage reduction of the number of flukes in the treated group compared with the control group.
# [4] = Acute oral toxicity (up-and-down); type: in vivo; conditions: mice
# Procedure: Briefly, healthy young adult male BALB/c mice (30 days old, 25 to 30 g) were used in this study. […] The animal was fasted, maintained, and observed for 14 days according to the OECD guidelines. If the mouse survived for the first 48 h, another animal received the same dose. If this was repeated, a third animal was dosed with 2,000 mg/kg and also observed for 14 days. The experiment ends at 14 days post-administration, if there are no signs of toxicity, the (LD50) is the administered dose, if not, the software AOT AOT425 Stat program recommendation was followed. […] In parallel, sodium oleate was dissolved in phosphate buffer and left in an orbital shaker for 12 h at room temperature. The former was then added to the evaporated residue, and the mixture was homogenized and placed in an ultrasonic bath at full power for 30 min. The sample was kept at room temperature until use.
# [5] = system: thioredoxin glutathione reductase; set-up: method as in PMID 22536349; conditions: cited from earlier work
# [6] = system: NEJ; set-up: method as in PMID 22536349; conditions: 48 h, fixed dose of 20 µM; cited from earlier work
# [7] = system: Echinococcus granulosus protoscolex; set-up: method as in PMID 22536349; conditions: 48 h, fixed dose of 20 µM; cited from earlier work
smiles,measurement,setting,value
Cc1ccc(-c2nsc(S(=O)(=O)c3ccc(C)cc3)n2)cc1 [Compound 187],S. mansoni somules severity score,"[1]; Table 2, 24 h, score 0 to maximum 4",4 (24 h)^##
same,SOMULES SEVERITY SCORE,[1]; 24 h,4
same,SOMULES SEVERITY SCORE,[1]; 48 h,4
same,SOMULES SEVERITY SCORE,[1]; 3d,4
same,effect on S. mansoni somules in words,[1]; in the first 24 h,lethal to somules
same,effect on S. mansoni adults in words,"[2]; 24 h, 5 µM",decreased the motility of adults and the ability of their oral and ventral suckers to adhere; also recorded: decreased motility and loss of their ventral sucker adherence to the plate floor
same,ADULTS SEVERITY SCORE,[2]; 4 h,0
same,ADULTS SEVERITY SCORE,[2]; 8 h,0
same,ADULTS SEVERITY SCORE,[2]; 24 h,2
same,effect on adult F. hepatica in words,"[3]; after 24 h, 10 µM",death of all the parasites
same,effect on adult F. hepatica in words,[3]; first 4 h at 10 µM,parasites were affected
same,acute oral toxicity in words,[4],low toxicity
same,LD50,"[4]; up-and-down, 14 days",≥ 2000 mg/kg body weight
same,inhibition of thioredoxin glutathione reductase in words,[5],moderate inhibitor
same,effect on NEJ in words,[6],showed effect
same,effect on Echinococcus granulosus protoscolex in words,[7],showed effect

# Reference: PMC7018972, “Novel and selective inactivators of Triosephosphate isomerase with anti-trematode activity” (Scientific Reports, 2020)
